From patent publication US7893279B2, “Cyclohexanecarboxylic acid compound” (Daiichi Pharmaceutical Co., Ltd., priority 2003, dated 2011)
≈ marks a conversion by molar mass, not a printed value.

Assays:
[1] = Moisture adsorption/desorption (microbalance, automatic vapor adsorption apparatus); type: physicochemical; details: for Moisture adsorption/desorption: change in weight / stability: crystals about 20 mg, relative humidities 10 to 90% RH
Procedure: Compound (1), compound (a), and salts of compound (a) prepared in Example 1, Referential Example 1, and Comparative Example 1, respectively, were evaluated in terms of moisture adsorption/desorption. Specifically, the amount of water adsorbed on or desorbed from each compound was determined through subjecting crystals (about 20 mg) of each compound to a microbalance (automatic vapor adsorption apparatus) and measuring time-elapsed change in weight at relative humidities (RH) ranging from 10 to 90%.

[2] = Solubility to water (37° C.); type: physicochemical; details: for Water-solubility (in words) / solubility: 37° C., water; for solubility: Table 1
[3] = molecular target: VLA-4 (Homo sapiens, UniProt P05556+P13612); test: VLA-4 inhibitory activity; type: binding; details: compared with compound (a)
Sequence of VLA-4 (P13612 34-1032): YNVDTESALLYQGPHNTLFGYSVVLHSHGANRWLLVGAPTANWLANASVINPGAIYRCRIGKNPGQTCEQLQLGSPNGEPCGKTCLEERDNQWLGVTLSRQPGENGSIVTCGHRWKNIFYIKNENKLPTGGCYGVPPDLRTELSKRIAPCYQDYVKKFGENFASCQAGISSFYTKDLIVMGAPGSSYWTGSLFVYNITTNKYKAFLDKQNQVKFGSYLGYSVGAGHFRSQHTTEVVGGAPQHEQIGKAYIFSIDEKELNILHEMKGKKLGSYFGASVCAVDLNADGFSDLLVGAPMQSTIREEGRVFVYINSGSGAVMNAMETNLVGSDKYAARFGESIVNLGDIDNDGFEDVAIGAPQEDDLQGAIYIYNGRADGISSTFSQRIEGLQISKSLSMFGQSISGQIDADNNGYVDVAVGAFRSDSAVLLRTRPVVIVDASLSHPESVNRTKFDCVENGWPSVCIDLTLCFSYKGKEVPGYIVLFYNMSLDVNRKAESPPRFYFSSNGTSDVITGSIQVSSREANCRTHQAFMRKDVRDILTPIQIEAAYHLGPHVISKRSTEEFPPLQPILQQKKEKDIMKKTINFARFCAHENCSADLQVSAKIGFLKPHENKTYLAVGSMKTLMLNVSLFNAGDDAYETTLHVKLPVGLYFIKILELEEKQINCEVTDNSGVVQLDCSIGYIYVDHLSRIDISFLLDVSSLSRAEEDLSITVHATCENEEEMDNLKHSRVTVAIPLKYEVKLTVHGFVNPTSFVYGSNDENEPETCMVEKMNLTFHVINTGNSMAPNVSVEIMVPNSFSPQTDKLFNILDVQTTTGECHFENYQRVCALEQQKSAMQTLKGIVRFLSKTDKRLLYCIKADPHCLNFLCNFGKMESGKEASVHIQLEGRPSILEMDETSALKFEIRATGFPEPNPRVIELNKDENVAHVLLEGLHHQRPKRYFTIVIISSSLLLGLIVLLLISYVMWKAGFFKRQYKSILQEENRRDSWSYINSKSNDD
Sequence of VLA-4 (P05556 21-798): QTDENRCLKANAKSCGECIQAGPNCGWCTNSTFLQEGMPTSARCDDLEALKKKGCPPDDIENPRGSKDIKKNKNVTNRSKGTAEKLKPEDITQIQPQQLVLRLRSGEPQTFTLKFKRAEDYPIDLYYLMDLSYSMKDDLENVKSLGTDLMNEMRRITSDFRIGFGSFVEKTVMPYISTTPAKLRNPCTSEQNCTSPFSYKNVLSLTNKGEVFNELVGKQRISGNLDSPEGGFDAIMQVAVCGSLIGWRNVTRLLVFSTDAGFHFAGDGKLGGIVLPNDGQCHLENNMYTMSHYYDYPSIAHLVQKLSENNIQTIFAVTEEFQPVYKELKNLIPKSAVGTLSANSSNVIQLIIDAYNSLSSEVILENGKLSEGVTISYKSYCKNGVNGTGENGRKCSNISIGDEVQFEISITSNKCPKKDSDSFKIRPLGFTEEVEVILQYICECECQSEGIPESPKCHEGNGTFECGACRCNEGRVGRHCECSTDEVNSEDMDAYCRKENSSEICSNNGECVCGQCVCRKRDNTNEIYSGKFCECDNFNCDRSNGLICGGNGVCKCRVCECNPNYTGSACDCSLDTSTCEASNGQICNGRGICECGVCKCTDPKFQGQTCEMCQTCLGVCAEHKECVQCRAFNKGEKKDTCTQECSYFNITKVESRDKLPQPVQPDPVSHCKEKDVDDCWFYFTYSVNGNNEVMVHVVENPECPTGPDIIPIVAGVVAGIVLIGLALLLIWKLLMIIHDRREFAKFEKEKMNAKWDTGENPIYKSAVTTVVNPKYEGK

Row | Compound | Moisture adsorption/desorption: change in weight / stability [1] | Water-solubility (in words) [2] | solubility [2] [µg/mL] | VLA-4 inhibitory activity [3] | Storage stability (moisture adsorption/desorption property) of crystal forms ([1]; Type-I and Type-II crystals of compound (1), FIG. 5) | Water Solubility ([2]; crystal forms of compound (1), manner similar to Test Example 2, Table 3) [µg/mL]
1 | CO[C@H]1C[C@@H](CO[C@H]2CC[C@H](C(=O)[O-])CC2)N(C(=O)Cc2cc(Cl)c(NC(=O)c3cn(C)c4ccccc34)cc2Cl)C1.[Na+] [Compound (1), sodium trans-4-[1-[2,5-dichloro-4-[(1-methyl-1H-3-indolylcarbonyl)amino]phenylacetyl]-(4S)-methoxy-(2S)-pyrrolidinylmethoxy]cyclohexanecarboxylate pentahydrate] | no change in weight under typical humidity conditions | very high water-solubility | > 1000 | comparable to that of compound (a) |  | 
2 | CO[C@H]1C[C@@H](CO[C@H]2CC[C@H](C(=O)O)CC2)N(C(=O)Cc2cc(Cl)c(NC(=O)c3cn(C)c4ccccc34)cc2Cl)C1 [Compound (a), trans-4-[1-[2,5-dichloro-4-[(1-methyl-1H-3-indolylcarbonyl)amino]phenylacetyl]-(4S)-methoxy-(2S)-pyrrolidinylmethoxy]cyclohexanecarboxylic acid, reference compound] | change in weight at 40 to 60% RH | considerably low water-solubility | 0.653 (≈ 1.06 µM) |  |  | 
3 | CO[C@H]1C[C@@H](CO[C@H]2CC[C@H](C(=O)[O-])CC2)N(C(=O)Cc2cc(Cl)c(NC(=O)c3cn(C)c4ccccc34)cc2Cl)C1.[Na+] [Type-I] |  |  |  |  | good storage stability | >1000
